In patent US20230150970A1, “AMINOPYRIMIDINE DERIVATIVES AND THEIR USE AS ARYL HYDROCARBON RECEPTOR MODULATORS” (DONG-A ST CO., LTD., priority 2020, published 2023) one finds IC50 data, which are given here for 33 molecules.

The target of this test is T1, AhR (Homo sapiens, UniProt P35869).
T1 sequence (P35869 11-848): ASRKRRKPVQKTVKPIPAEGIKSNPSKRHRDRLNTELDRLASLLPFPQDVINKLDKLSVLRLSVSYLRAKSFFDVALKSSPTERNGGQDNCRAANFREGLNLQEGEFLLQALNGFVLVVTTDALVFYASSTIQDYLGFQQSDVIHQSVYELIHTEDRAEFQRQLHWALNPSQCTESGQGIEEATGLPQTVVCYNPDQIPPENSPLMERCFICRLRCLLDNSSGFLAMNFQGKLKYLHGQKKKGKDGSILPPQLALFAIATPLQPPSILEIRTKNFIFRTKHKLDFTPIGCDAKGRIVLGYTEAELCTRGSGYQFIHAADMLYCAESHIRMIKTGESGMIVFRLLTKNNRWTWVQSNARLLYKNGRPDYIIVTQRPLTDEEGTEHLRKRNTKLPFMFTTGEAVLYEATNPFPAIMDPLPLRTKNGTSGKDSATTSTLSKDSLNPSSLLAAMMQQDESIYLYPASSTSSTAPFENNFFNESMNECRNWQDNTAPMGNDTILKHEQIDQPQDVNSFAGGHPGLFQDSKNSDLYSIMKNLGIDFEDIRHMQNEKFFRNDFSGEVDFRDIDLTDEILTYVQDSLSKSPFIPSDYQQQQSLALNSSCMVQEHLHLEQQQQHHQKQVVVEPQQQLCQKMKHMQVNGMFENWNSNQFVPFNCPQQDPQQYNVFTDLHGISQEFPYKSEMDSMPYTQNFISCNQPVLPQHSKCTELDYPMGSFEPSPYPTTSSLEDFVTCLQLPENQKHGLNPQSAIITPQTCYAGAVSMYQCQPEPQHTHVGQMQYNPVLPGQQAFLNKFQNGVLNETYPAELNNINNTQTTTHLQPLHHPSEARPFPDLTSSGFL
The test is described as follows: In Vitro Assay 1: XRE-luciferase reporter assay, antagonism in human cell line (HepG2). Conditions: Assay 1: AhR-Luc Human Antagonism (IC50, nM), values marked *: kynurenine 50 μM, 6 hours.

From the text: In Vitro XRE-Luciferase Reporter Assay (In Vitro Assay 1, 2, 3) AhR activation leads the induction of target gene expression such as CYP1A1 and CYPIB1 by AhR binding to AhR-responsive DNA elements also known as xenobiotics responsive elements (XREs). The assay for measuring AhR activity herein is the luciferase assay using cell lines transfected with luciferase reporter plasmid containing XREs at the upstream of the reporter gene. Cells transfected with XRE-luciferase reporter (XRE-Luc), plasmid drive luciferase activity reflecting activation and inhibition of AhR in the cells. […] Kynurenine (an endogenous AhR agonist), was used to stimulate cells to test antagonistic properties of the compounds. The half-maximal inhibitory concentration (IC50), or half-maximal effective concentration (EC50), value was calculated using nonlinear regression (four parameters), with Prism8.0 software (GraphPad).
In Vitro Assay 1: Antagonism in Human Cell Line
HepG2 (human hepatoma cell line) cell line with a XRE-luciferase reporter either transiently or stably (Invivogen) were plated in complete medium and incubated at 37° C. in a CO2 incubator. After 24 hours, cells were treated with kynurenine (50* or 200 μM) alone (negative control) or with test compounds for 6 hours. Luciferase activity was measured with a commercial kit such as the Promega Luciferase kit or Invivogen Luciferase kit. Relative luciferase activity (Firefly/Nano-Luc) was used to calculate IC50 values. […] (IC50 values are grouped as A, B, C and D, whereby A: IC50<0.01 μM; B: 0.01<IC50<0.1 μM; C: 0.1<IC50<1.0 μM; D: IC50>1.0 μM)

Take `O=C1CCN(c2cc(-c3ccc(Cl)cc3)nc(-c3cccnc3)n2)CC1` [Example 166, 1-(6-(4-chlorophenyl)-2-(pyridin-3-yl)pyrimidin-4-yl)piperidin-4-one]: the half-inhibitory concentration (IC50) lay in the range of 10 to 100 nM.

In turn, `CN(c1cc(-c2ccc(Cl)cc2)nc(-c2cccnc2)n1)C1CCNCC1` [Example 167, 6-(4-chlorophenyl)-N-methyl-N-(piperidin-4-yl)-2-(pyridin-3-yl)pyrimidin-4-amine] yielded an IC50 of over 1000 nM.

Regarding `CN1CCCCC1CCNc1cc(-c2ccc(Cl)cc2)nc(-c2cccnc2)n1` (stereo not drawn) [Example 168, 6-(4-chlorophenyl)-N-(2-(1-methylpiperidin-2-yl)ethyl)-2-(pyridin-3-yl)pyrimidin-4-amine], the IC50 is over 1000 nM. On to `CC(Nc1cc(-c2ccc(Cl)cc2)nc(-c2cccnc2)n1)C1CCN(C)CC1` (stereo not drawn) [Example 169, 6-(4-chlorophenyl)-N-(1-(1-methylpiperidin-4-yl)ethyl)-2-(pyridin-3-yl)pyrimidin-4-amine], for which the half-inhibitory concentration (IC50) is over 1000 nM. `COC(=O)CN1CCC(Nc2cc(-c3ccc(Cl)cc3)nc(-c3cccnc3)n2)CC1` [Example 171, methyl 2-(4-((6-(4-chlorophenyl)-2-(pyridin-3-yl)pyrimidin-4-yl)amino)piperidin-1-yl)acetate]: the IC50 was 10 to 100 nM.

For the molecule `CC(OC(=O)C(F)(F)F)C1CCN(c2cc(-c3ccc(Cl)cc3)nc(-c3cccnc3)n2)CC1` (stereo not drawn) [Example 172, 1-(1-(6-(4-chlorophenyl)-2-(pyridin-3-yl)pyrimidin-4-yl)piperidin-4-yl)ethyl 2,2,2-trifluoroacetate], the IC50 is under 10 nM. The molecule `CN1CCCC(Nc2cc(-c3ccc(Cl)cc3)nc(-c3cccnc3)n2)C1` (stereo not drawn) [Example 173, 6-(4-chlorophenyl)-N-(1-methylpiperidin-3-yl)-2-(pyridin-3-yl)pyrimidin-4-amine] showed an IC50 of 100 to 1000 nM. Take `Cn1cc(-c2nc(N[C@@H]3CCC[C@@H]3O)cc(-c3ccc(Cl)cc3)n2)cn1` [Example 174, (1S,2R)-2-((6-(4-chlorophenyl)-2-(1-methyl-1H-pyrazol-4-yl)pyrimidin-4-yl)amino)cyclopentan-1-ol]: the half-inhibitory concentration (IC50) was 100 to 1000 nM. For `Cn1cc(-c2nc(-c3ccc(Cl)cc3)cc(N3CCC[C@@H](O)C3)n2)cn1` [Example 175, (R)-1-(6-(4-chlorophenyl)-2-(1-methyl-1H-pyrazol-4-yl)pyrimidin-4-yl)piperidin-3-ol], the IC50 was in the range of 10 to 100 nM. In the case of `Cn1cc(-c2nc(-c3ccc(Cl)cc3)cc(N3CCC(O)CC3)n2)cn1` [Example 176, 1-(6-(4-chlorophenyl)-2-(1-methyl-1H-pyrazol-4-yl)pyrimidin-4-yl)piperidin-4-ol], the IC50 was over 1000 nM.

As for `Cn1cc(-c2nc(-c3ccc(Cl)cc3)cc(N3CCC(CO)CC3)n2)cn1` [Example 177, (1-(6-(4-chlorophenyl)-2-(1-methyl-1H-pyrazol-4-yl)pyrimidin-4-yl)piperidin-4-yl)methanol], the IC50 lay in the range of 10 to 100 nM. Consider `Cn1cc(-c2nc(-c3ccc(Cl)cc3)cc(N3CCC(CCO)CC3)n2)cn1` [Example 178, 2-(1-(6-(4-chlorophenyl)-2-(1-methyl-1H-pyrazol-4-yl)pyrimidin-4-yl)piperidin-4-yl)ethan-1-ol], for which the 50% inhibitory concentration (IC50) was 100 to 1000 nM. The value for `Cn1cc(-c2nc(-c3ccc(Cl)cc3)cc(N3CCC(CCCO)CC3)n2)cn1` [Example 179, 3-(1-(6-(4-chlorophenyl)-2-(1-methyl-1H-pyrazol-4-yl)pyrimidin-4-yl)piperidin-4-yl)propan-1-ol] was 100 to 1000 nM; that for `CC1CCN(c2cc(-c3ccc(Cl)cc3)nc(-c3cnn(C)c3)n2)CC1` [Example 180, 4-(4-chlorophenyl)-2-(1-methyl-1H-pyrazol-4-yl)-6-(4-methylpiperidin-1-yl)pyrimidine] was over 1000 nM. `CN1CCN(c2cc(-c3ccc(Cl)cc3)nc(-c3cnn(C)c3)n2)CC1` [Example 181, 4-(4-chlorophenyl)-2-(1-methyl-1H-pyrazol-4-yl)-6-(4-methylpiperazin-1-yl)pyrimidine]: the IC50 is 100 to 1000 nM.

For the molecule `Cn1cc(-c2nc(-c3ccc(Cl)cc3)cc(N3CCN(CCO)CC3)n2)cn1` [Example 182, 2-(4-(6-(4-chlorophenyl)-2-(1-methyl-1H-pyrazol-4-yl)pyrimidin-4-yl)piperazin-1-yl)ethan-1-ol], the IC50 lay within 100 to 1000 nM. The value for `Cn1cc(-c2nc(-c3ccc(Cl)cc3)cc(N3CC[C@H](O)C3)n2)cn1` [Example 183, (S)-1-(6-(4-chlorophenyl)-2-(1-methyl-1H-pyrazol-4-yl)pyrimidin-4-yl)pyrrolidin-3-ol] was 100 to 1000 nM; that for `Cn1cc(-c2nc(-c3ccc(Cl)cc3)cc(N3CCC(C#N)CC3)n2)cn1` [Example 184, 1-(6-(4-chlorophenyl)-2-(1-methyl-1H-pyrazol-4-yl)pyrimidin-4-yl)piperidine-4-carbonitrile] was 100 to 1000 nM. The value for `Cn1cc(-c2nc(-c3ccc(Cl)cc3)cc(N3CCC[C@@H](CO)C3)n2)cn1` [Example 185, (R)-(1-(6-(4-chlorophenyl)-2-(1-methyl-1H-pyrazol-4-yl)pyrimidin-4-yl)piperidin-3-yl)methanol] was 100 to 1000 nM; that for `Cn1cc(-c2nc(-c3ccc(Cl)cc3)cc(N3CC[C@@H](O)C3)n2)cn1` [Example 186, (R)-1-(6-(4-chlorophenyl)-2-(1-methyl-1H-pyrazol-4-yl)pyrimidin-4-yl)pyrrolidin-3-ol] was over 1000 nM. As for `Cn1cc(-c2nc(N[C@@H]3CC[C@H](O)C3)cc(-c3ccc(Cl)cc3)n2)cn1` [Example 187, (1S,3R)-3-((6-(4-chlorophenyl)-2-(1-methyl-1H-pyrazol-4-yl)pyrimidin-4-yl)amino)cyclopentan-1-ol], the IC50 fell in the range of 100 to 1000 nM. Take `CC[C@H](CO)Nc1cc(-c2ccc(Cl)cc2)nc(-c2cnn(C)c2)n1` [Example 188, (R)-2-((6-(4-chlorophenyl)-2-(1-methyl-1H-pyrazol-4-yl)pyrimidin-4-yl)amino)butan-1-ol]: the IC50 was in the range of 100 to 1000 nM. `Cn1cc(-c2nc(N[C@H]3CC[C@H](O)CC3)cc(-c3ccc(Cl)cc3)n2)cn1` [Example 189, Trans-4-((6-(4-chlorophenyl)-2-(1-methyl-1H-pyrazol-4-yl)pyrimidin-4-yl)amino)cyclohexan-1-ol] showed an IC50 of 100 to 1000 nM. Take `Clc1ccc(-c2cc(N3CCC4CCCOC4C3)nc(-c3cccnc3)n2)cc1` (stereo not drawn) [Example 190, 7-(6-(4-chlorophenyl)-2-(pyridin-3-yl)pyrimidin-4-yl)octahydro-2H-pyrano[2,3-c]pyridine]: the IC50 lay in the range of 10 to 100 nM.

`OC1CCOC2CN(c3cc(-c4ccc(Cl)cc4)nc(-c4cccnc4)n3)CCC12` (stereo not drawn) [Example 191, 7-(6-(4-chlorophenyl)-2-(pyridin-3-yl)pyrimidin-4-yl)octahydro-2H-pyrano[2,3-c]pyridin-4-ol] came in with an IC50 of 10 to 100 nM. `CC[C@@H](Nc1cc(-c2ccc(Cl)cc2)nc(-c2cccnc2)n1)[C@@H](C)O` [Example 192, (2R,3R)-3-((6-(4-chlorophenyl)-2-(pyridin-3-yl)pyrimidin-4-yl)amino)pentan-2-ol]: the IC50 was in the range of 100 to 1000 nM. For the molecule `CN1CCC(CNc2cc(-c3ccc(Cl)cc3)nc(-c3cccnc3)n2)CC1` [Example 193, 6-(4-chlorophenyl)-N-((1-methylpiperidin-4-yl)methyl)-2-(pyridin-3-yl)pyrimidin-4-amine], the IC50 was 100 to 1000 nM. The molecule `O[C@@H]1CCN(c2cc(-c3ccc(Cl)cc3)nc(-c3cccnc3)n2)C1` [Example 194, (R)-1-(6-(4-chlorophenyl)-2-(pyridin-3-yl)pyrimidin-4-yl)pyrrolidin-3-ol] registered a 50% inhibitory concentration (IC50) of under 10 nM.

With `COC[C@@H]1CCCN1Nc1cc(-c2ccc(Cl)cc2)nc(-c2cccnc2)n1` [Example 195, (S)-6-(4-chlorophenyl)-N-(2-(methoxymethyl)pyrrolidin-1-yl)-2-(pyridin-3-yl)pyrimidin-4-amine], the 50% inhibitory concentration (IC50) was over 1000 nM.

In turn, `F[C@H]1CCN(c2cc(-c3ccc(Cl)cc3)nc(-c3cccnc3)n2)C1` [Example 196, (S)-4-(4-chlorophenyl)-6-(3-fluoropyrrolidin-1-yl)-2-(pyridin-3-yl)pyrimidine] registered an IC50 of 10 to 100 nM. The value for `FC(F)(F)C1CCCN1c1cc(-c2ccc(Cl)cc2)nc(-c2cccnc2)n1` (stereo not drawn) [Example 197, 4-(4-chlorophenyl)-2-(pyridin-3-yl)-6-(2-(trifluoromethyl)pyrrolidin-1-yl)pyrimidine] was over 1000 nM. For `FC1(F)CCN(c2cc(-c3ccc(Cl)cc3)nc(-c3cccnc3)n2)C1` [Example 198, 4-(4-chlorophenyl)-6-(3,3-difluoropyrrolidin-1-yl)-2-(pyridin-3-yl)pyrimidine], the IC50 is 10 to 100 nM.

`Clc1ccc(-c2cc(N3CCC(N4CCOCC4)C3)nc(-c3cccnc3)n2)cc1` (stereo not drawn) [Example 199, 4-(1-(6-(4-chlorophenyl)-2-(pyridin-3-yl)pyrimidin-4-yl)pyrrolidin-3-yl)morpholine] gave a 50% inhibitory concentration (IC50) of 100 to 1000 nM.
